Legend:
[1] = test system: H9-MSCs; experiment: MSC vial freezing, post-thaw recovery and two-hour attachment (Example 5); format: cell-based, human; conditions: DMSO, room temperature pre-freeze incubation; 1° C./min; FIG. 21C
Procedure: Optimized solutions were prepared at double (2×) the final freezing concentration and added stepwise to cells in NORMOSOL-R (Hospira, Inc., Lake Forest, Ill.) at a 1:1 final volume ratio in a freezing vial (NALGENE, Nalge Nunc, Penfield, N.Y.). Control cells in media were similarly combined stepwise with DMSO at a 1:1 final volume ratio. Each of these vials was incubated at room temperature for 0 hours, one hour, or two hours. Experimental solutions were frozen using a 3° C./min cooling rate protocol described below, while DMSO solutions were frozen using a 1° C./min cooling rate protocol on a controlled rate freezer (Kryo 10 Series III, Planer PLC, Middlesex, United Kingdom). […]
Samples were submerged in a 37° C. bath to just under cap level, and agitated until only a small ice crystal was present. The cells were combined with acridine orange/propidium iodide (AO/PI) and counted using a hemocytometer. […]
Cell attachment of samples post-thaw was measured using a fluorescent plate reader. […] After two hours or 24 hours, these paired plates were washed with PBS, 1 μM calcein-acetoxymethyl (AM) dye was added, and then analyzed for fluorescence on a plate reader. Raw fluorescence values were used to calculate the number of live cells present in each well by correlating to a control curve of cells seeded at known densities. […]

[2] = molecular target: lysozyme (Gallus gallus, UniProt P00698); experiment: Differential scanning calorimetry, denaturation temperature of lysozyme in osmolyte solution; format: physicochemical; conditions: 1 mg/ml lysozyme in 20 mM HEPES buffer; single osmolytes 600 mM; heated at 1° C./min; pH 7.3
Procedure: Lysozyme powder was dissolved into each solution reaching final concentration of 100 mg/ml and then refrigerated. Lysozyme in DPBS solution was used as control. For DSC measurements, experiment solution was made by dissolving osmolyte into 20 mM HEPES buffer and the concentration of osmolyte in each solution remained same as in DPBS solution. Lysozyme powder was dissolved into each solution reaching final concentration of 1 mg/ml and kept refrigerated. Lysozyme in HEPES buffer was used as control. The pH of solutions was 7.3 measured by Beckman 350 meter. Differential scanning calorimetry was performed on a differential scanning calorimeter (Q1000, TA Instruments, New Castle, Del.). Osmolyte solutions containing lysozyme were heated in order to determine the denaturation temperature of lysozyme. Experimental solutions were heated from room temperature to 90° C. at 1° C./min. Specific heat, Cp, was calculated from the heat flow data assuming Cp as a function of temperature were analyzed using OriginPro software (OriginLab Corp., Northampton, Mass.) to subtract curve baseline. The midpoint temperature, Tm, was obtained as the temperature corresponding to the maximum specific heat value from the baseline and the denaturation temperature was assumed to be Tm^32.

[3] = test system: Jurkat cells; experiment: High throughput factorial screening with Linear Mixed Effects statistical analysis of recovery; format: cell-based; conditions: statistical analysis of sugar and cooling rate
Procedure: In another evaluation, cells were combined with factorial combinations of the components listed in Table 5, using one component from each category. Plates including cells and solutions were frozen at cooling rates of 1′C/min, 3′C/min, 5′C/min, or 10′C/min.
Recovery was calculated by dividing the number of live cells post thaw—calculated using a control curve correlating calcein-acetoxymethyl (AM) fluorescence to cell count—by the number of live cells seeded pre-freeze (AO/PI counts taken prior to freezing). Recovery was normalized by dividing by the DMSO recovery on each plate, then multiplying by a standard DMSO recovery for each cooling rate. This normalized recovery was used to compare samples between different plates and different cooling rates.
Statistical analysis of the data was performed using a Linear Effects Model. The model associated with best fit was determined using Bayesian Information Criteria. […] The ten best combinations for Jurkats are summarized in Table 6 below, while the eight best combinations for MSCs are summarized in Table 7.
High throughput factorial screening experiments were performed on a Biomek Beckman FX 96 liquid handling robot. Briefly, 12.5 μl of an array of additives were transferred to nine 96-well plates containing 12.5 μl of different sugar alcohols. Cells (25 μl) diluted in either a sugar (in a solution of NORMOSOL-R; Hospira, Inc., Lake Forest, L) or a NORMOSOL-R blank solution were transferred to these nine plates to give a final volume of 50 μl in each well. Cells suspended in […] in media were also included as a row of each plate to serve as normalization wells for plate-to-plate comparison.
When all plate volume transfers were complete, silicone plate covers were used to seal each plate, and plates were transferred to a controlled rate freezer (Kryo 10 Series III, Planer PLC, Middlesex, United Kingdom) and frozen at cooling rates ranging from 1° C./min to 10° C./min. The concentrations of components present in solution are listed in Table 11, and were selected based on values described in literature or solubility limits. Component concentrations were 0 if not listed in a solution.
Plate samples were also assessed for viability using fluorescence. Briefly, a solution of calcein-AM/propidium iodide was prepared and a volume of 50 μl was added to each sample well of experimental 96-well plates, producing a 1:1 dilution. Plates were protected from light and placed in an incubator for 30 minutes to allow for calcein-AM digestion. A fluorescent plate reader (Synergy HT, BioTek Instruments, Inc., Winooski, Vt.) was used to determine the fluorescence in each well, which was correlated to live and dead cell counts using a control curve.
Viability was calculated for all samples by dividing the number of live cells by the number of total cells. Recovery was calculated directly by dividing the number of live cells post thaw by the number of live cells pre-freeze. Recovery for 96-well plate samples was further normalized; each experimental sample recovery was divided by the DMSO recovery on the same plate, and then multiplied by the standard DMSO recovery for the cooling rate of each experiment.
To assess the importance of the four explanatory variables of interest (Sugar, Rate, Additive and Alcohol), without neglecting the variation between each batch and between each plate within the batches, we sought to find the best Linear Mixed Effects (LME) model. […]

Sequence of lysozyme (P00698 19-147): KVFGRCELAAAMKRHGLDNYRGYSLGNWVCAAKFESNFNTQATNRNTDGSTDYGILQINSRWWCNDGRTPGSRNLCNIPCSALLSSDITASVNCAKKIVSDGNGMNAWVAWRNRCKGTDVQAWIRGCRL

Denaturation temperature Tm of lysozyme [2]	SMILES	attachment of cells, effect of incubation prior to freezing [1]	cell recovery, effect of incubation prior to freezing [1]	cooling rate at which cells performed better with the sugar [3]
–	C[S+](C)[O-] [DMSO, dimethyl sulfoxide]	significantly reduced	did not alter	–
84.4 °C	OC[C@H]1O[C@@](CO)(O[C@H]2O[C@H](CO)[C@@H](O)[C@H](O)[C@H]2O)[C@@H](O)[C@@H]1O [Sucrose]	–	–	10 °C and 1° C./min

From US20220030850A1, “CRYOPRESERVATIVE COMPOSITIONS AND METHODS” (REGENTS OF THE UNIVERSITY OF MINNESOTA, priority 2015, published 2022)
